Results on one molecule are retold here after patent US20070155803A1, “Protease inhibitors” (ProZymex A/S, priority 2003, published 2007).

The assay concerns the target T1, CYP2C9 (Homo sapiens, UniProt P11712).
T1 construct: purchased PanVera Vivid CYP2C9 Red Screening Kit
Nature of the assay: CYP2C9 assay (Vivid CYP2C9 Red Screening Kit). Format: in vitro ADME. The settings on record: 20 μM cutoff; read-out: Metabolism: CYP enzymes (20 μM cutoff or IC50) CYP2C9. The procedure: Tubes thawed on ice. 2× reaction buffer dispensed (room temperature) in two eppendorf tubes (for Mix A and Mix B).
Controls or compounds of the invention: Diluted to a concentration of 50 μM. Positive control compound: α-naphthoflavone.
Negative controls: DMSO and H2O.
Mix A: 485 μL reaction buffer, 10 μL regeneration system, 5 μL Baculosome reagent. Mixed gently and placed on ice.
Mix B: 88.5 μL reaction buffer, 1.5 μL substrate, 10 μL 10 mM NADP^+.
In a 96-well plate (Costar c-3904), 40 μL of 50 μM sample dispensed. 50 μl Mix A added. Incubated 20 min. at rt. Then, 10 μl of Mix B added. Fluorescence determined (Molecular Devices, SPECTRAmax Gemini EM): Ex: 409 nm, Em: 460 nm, at 37° C. for 20 min. (Automix: 5 s, top read.).
Following the procedure for CYP1A2, using the appropriate kits below, the effect of a compound of the invention on the other CYP enzymes was determined:
Vivid® CYP2C9 Red Screening Kit from PanVera.

As a reminder, the pIC50 is the negative decadic logarithm of the IC50, by convention in mol/L.

pIC50: −log10 of the molar value. Square brackets hold non-standard residues; d marks the D form. Peptide text beside a SMILES is read from it. Phe(3-F) = N[C@@H](Cc1cccc(F)c1)C(=O)O; hPhe = N[C@@H](CCc1ccccc1)C(=O)O; Abu = CC[C@H](N)C(=O)O; azaGly = NNC(=O)O

T1 sequence (P11712 whole entry): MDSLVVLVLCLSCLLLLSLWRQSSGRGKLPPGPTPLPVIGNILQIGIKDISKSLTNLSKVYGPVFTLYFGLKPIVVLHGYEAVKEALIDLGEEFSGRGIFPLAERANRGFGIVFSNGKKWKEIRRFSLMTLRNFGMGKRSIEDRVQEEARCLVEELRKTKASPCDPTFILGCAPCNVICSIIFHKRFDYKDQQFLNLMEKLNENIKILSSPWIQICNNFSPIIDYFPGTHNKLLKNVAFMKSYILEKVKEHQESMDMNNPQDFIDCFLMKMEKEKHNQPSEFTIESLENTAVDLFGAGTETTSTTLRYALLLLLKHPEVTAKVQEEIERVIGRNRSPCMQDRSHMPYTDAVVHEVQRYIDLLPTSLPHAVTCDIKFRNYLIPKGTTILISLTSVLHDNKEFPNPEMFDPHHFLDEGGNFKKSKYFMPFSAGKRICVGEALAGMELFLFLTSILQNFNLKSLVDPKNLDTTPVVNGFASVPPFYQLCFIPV

As to `CC[C@H](N)C(=O)NNC(=O)N[C@@H](CCc1ccccc1)C(=O)N[C@@H](Cc1cccc(F)c1)C(N)=O` [Example 11, 1-(2S-2-Aminobutanoyl)-4-[2S-N-[2S-3-(m-fluorophenyl)propan-2-yl-amide]-4-phenylbutan-2-yl-amide]semicarbazide] (H-[Abu][azaGly][hPhe][Phe(3-F)]-NH2), the pIC50 is less than 4.70.
